Assay results published in patent US8895561B2, “Compounds and methods for treating candidiasis and aspergillus infections” (Cellceutix Corporation, priority 2012, dated 2014).
pEC50: −log10 of the molar value. Converted amounts (≈) assume the structure as drawn. Where two headings read alike, the source gives them in different places.

Columns and labels:
C. albicans GDH2346 = assay: Candida IC50, vegetative cells, by OD600 and fluorescence; type: cell-based; details: Candida albicans, GDH2346; vegetative cells; read-out: CA (Candida IC50)
Protocol: (§1) Candida IC50s were determined by OD600 and fluorescence from vegetative cells and by MTS viability assay in the hyphal state. MICs were determined using a broth microdilution assay under standard CLSI conditions Bacteria strains: E. coli 25922 (EC), S. aureus 27660 (SA), E. faecalis 29212 (EF), P. aeruginosa 10145 (PA), and K. pneumoniae 13883 (KP). Cytotoxicity (EC50) was determined against mouse 3T3 fibroblasts, human transformed liver HepG2 cells, and human oral keratinocyte cell line, OKF6/TERT using an MTS viability assay. Candida IC50s<10 μg/mL, MICs<5 μg/mL and cytotoxicity EC50s>100 μM are indicated in green. MICs>5 μg/mL and cytotoxicity EC50s<100 μM are indicated in red. Candida IC50s (CA) were determined by OD600 and fluorescence from vegetative cells. MICs were determined using a broth microdilution assay under standard CLSI conditions Bacteria strains: E. coli 25922 (EC), S. aureus 27660 (SA), E. faecalis 29212 (EF), P. aeruginosa 10145 (PA), and K. pneumoniae 13883 (KP). Cytotoxicity (EC50) was determined against mouse 3T3 fibroblasts and human transformed liver HepG2 cells using an MTS viability assay. For determination of anti-Candida IC50s, the method was modified by using RPMI/MOPS buffer pH 6.3 and by addition of FDGlu, a substrate for the yeast enzyme exoglucanase which is secreted during cell growth. This provides a fluorescent readout for cell growth which was used in addition to the traditional optical density measure of growth. OD600 and fluorescence were determined at 24 and 48 hours and the average of all 4 reads was used for the final IC50 determination.

E. coli 25922 = assay: Bacterial MIC, broth microdilution, CLSI; type: cell-based; details: Escherichia coli, 25922; read-out: EC (MIC)
Protocol: as §1, with “assay.” for “assay. For determination of anti-Candida IC50s, the method was modified by using RPMI/MOPS buffer pH 6.3 and by addition of FDGlu, a substrate for the yeast enzyme exoglucanase which is secreted during cell growth. This provides a fluorescent readout for cell growth which was used in addition to the traditional optical density measure of growth. OD600 and fluorescence were determined at 24 and 48 hours and the average of all 4 reads was used for the final IC50 determination.”

E. faecalis 29212 = assay: Bacterial MIC, broth microdilution, CLSI; type: cell-based; details: Enterococcus faecalis, 29212; read-out: EF (MIC)
Protocol: as §1, with “assay.” for “assay. For determination of anti-Candida IC50s, the method was modified by using RPMI/MOPS buffer pH 6.3 and by addition of FDGlu, a substrate for the yeast enzyme exoglucanase which is secreted during cell growth. This provides a fluorescent readout for cell growth which was used in addition to the traditional optical density measure of growth. OD600 and fluorescence were determined at 24 and 48 hours and the average of all 4 reads was used for the final IC50 determination.”

P. aeruginosa 10145 = assay: Bacterial MIC, broth microdilution, CLSI; type: cell-based; details: Pseudomonas aeruginosa, 10145; read-out: PA (MIC)
Protocol: as §1, with “assay.” for “assay. For determination of anti-Candida IC50s, the method was modified by using RPMI/MOPS buffer pH 6.3 and by addition of FDGlu, a substrate for the yeast enzyme exoglucanase which is secreted during cell growth. This provides a fluorescent readout for cell growth which was used in addition to the traditional optical density measure of growth. OD600 and fluorescence were determined at 24 and 48 hours and the average of all 4 reads was used for the final IC50 determination.”

S. aureus 27660 = assay: Bacterial MIC, broth microdilution, CLSI; type: cell-based; details: Staphylococcus aureus, 27660; read-out: SA (MIC)
Protocol: as §1, with “assay.” for “assay. For determination of anti-Candida IC50s, the method was modified by using RPMI/MOPS buffer pH 6.3 and by addition of FDGlu, a substrate for the yeast enzyme exoglucanase which is secreted during cell growth. This provides a fluorescent readout for cell growth which was used in addition to the traditional optical density measure of growth. OD600 and fluorescence were determined at 24 and 48 hours and the average of all 4 reads was used for the final IC50 determination.”

[1] = Cytotoxicity, MTS viability assay; type: cell-based, human
Protocol: Candida IC50s were determined by OD600 and fluorescence from vegetative cells and by MTS viability assay in the hyphal state. MICs were determined using a broth microdilution assay under standard CLSI conditions Bacteria strains: E. coli 25922 (EC), S. aureus 27660 (SA), E. faecalis 29212 (EF), P. aeruginosa 10145 (PA), and K. pneumoniae 13883 (KP). Cytotoxicity (EC50) was determined against mouse 3T3 fibroblasts, human transformed liver HepG2 cells, and human oral keratinocyte cell line, OKF6/TERT using an MTS viability assay. Candida IC50s<10 μg/mL, MICs<5 μg/mL and cytotoxicity EC50s>100 μM are indicated in green. MICs>5 μg/mL and cytotoxicity EC50s<100 μM are indicated in red.
Candida IC50s (CA) were determined by OD600 and fluorescence from vegetative cells. MICs were determined using a broth microdilution assay under standard CLSI conditions Bacteria strains: E. coli 25922 (EC), S. aureus 27660 (SA), E. faecalis 29212 (EF), P. aeruginosa 10145 (PA), and K. pneumoniae 13883 (KP). Cytotoxicity (EC50) was determined against mouse 3T3 fibroblasts and human transformed liver HepG2 cells using an MTS viability assay.
CLSI conditions Bacteria strains: clinical isolates; yeast strains: C. dubliniensis (NCPF3949), C. glabrata (ATCC 90030), C. krusei (ATCC 6258), C. parapsilosis (ATCC 22019), and C. tropicalis (ATCC 750). Cytotoxicity (EC50) was determined against mouse 3T3 fibroblasts, human transformed liver HepG2 cells, and human oral keratinocyte cell line, OKF6/TERT using an MTS viability assay.

[2] = human, HepG2 cells (transformed liver), read-out: HepG2 (cytotoxicity EC50)
[3] = mouse, 3T3 fibroblasts, read-out: 3T3 (cytotoxicity EC50)

## NCCCn1c2cc(-c3cccc(O)c3)ccc2c2ccc(-c3cccc(O)c3)cc21 [Compound 149]
C. albicans GDH2346
  IC50: > 100 µg/mL
E. coli 25922
  MIC: 3.13 µg/mL (≈ 7.66 µM)
E. faecalis 29212
  MIC: 1.56 µg/mL (≈ 3.82 µM)
P. aeruginosa 10145
  MIC: > 100 µg/mL
S. aureus 27660
  MIC: 0.049 µg/mL (≈ 0.12 µM)
[1]; [2]
  pEC50: 4.70
[1]; [3]
  pEC50: 4.54

## NCCCOc1cccc(-c2ccc3c4ccc(-c5cccc(OCCCN)c5)cc4n(CCCN)c3c2)c1 [Compound 150]
C. albicans GDH2346
  IC50: 3.34 µg/mL (≈ 6.39 µM)
E. coli 25922
  MIC: 0.78 µg/mL (≈ 1.49 µM)
E. faecalis 29212
  MIC: 1.56 µg/mL (≈ 2.98 µM)
P. aeruginosa 10145
  MIC: 3.13 µg/mL (≈ 5.99 µM)
S. aureus 27660
  MIC: 0.049 µg/mL (≈ 0.0937 µM)
[1]; [2]
  pEC50: 4.24
[1]; [3]
  pEC50: 4.27

## NCCCn1c2cc(-c3cccc(OCCN)c3)ccc2c2ccc(-c3cccc(OCCN)c3)cc21 [Compound 151]
C. albicans GDH2346
  IC50: 3.85 µg/mL (≈ 7.78 µM)
E. coli 25922
  MIC: 3.13 µg/mL (≈ 6.33 µM)
E. faecalis 29212
  MIC: 6.25 µg/mL (≈ 12.6 µM)
P. aeruginosa 10145
  MIC: 6.25 µg/mL (≈ 12.6 µM)
S. aureus 27660
  MIC: 0.195 µg/mL (≈ 0.394 µM)
[1]; [2]
  pEC50: 4.11
[1]; [3]
  pEC50: 4.25

## NCCCOc1ccc(-c2ccc3c4ccc(-c5ccc(OCCCN)cc5)cc4n(CCCN)c3c2)cc1 [Compound 152]
C. albicans GDH2346
  IC50: 3.77 µg/mL (≈ 7.21 µM)
E. coli 25922
  MIC: 1.56 µg/mL (≈ 2.98 µM)
E. faecalis 29212
  MIC: 1.56 µg/mL (≈ 2.98 µM)
P. aeruginosa 10145
  MIC: 3.13 µg/mL (≈ 5.99 µM)
S. aureus 27660
  MIC: 0.39 µg/mL (≈ 0.746 µM)
[1]; [2]
  pEC50: 4.92
[1]; [3]
  pEC50: 4.47

## NCCCn1c2cc(-c3cccc(N)c3)ccc2c2ccc(-c3cccc(N)c3)cc21 [Compound 153]
E. coli 25922
  MIC: 12.5 µg/mL (≈ 30.7 µM)
E. faecalis 29212
  MIC: 12.5 µg/mL (≈ 30.7 µM)
P. aeruginosa 10145
  MIC: 100 µg/mL (≈ 246 µM)
S. aureus 27660
  MIC: 1.56 µg/mL (≈ 3.84 µM)
[1]; [2]
  pEC50: 4.19
[1]; [3]
  pEC50: 4.34

## CCn1c2ccc(-c3cccc(N(CCN)CCN)c3)cc2c2cc(-c3cccc(N(CCN)CCN)c3)ccc21 [Compound 155]
C. albicans GDH2346
  IC50: 2.63 µg/mL (≈ 4.78 µM)
E. coli 25922
  MIC: 12.5 µg/mL (≈ 22.7 µM)
E. faecalis 29212
  MIC: > 50 µg/mL
P. aeruginosa 10145
  MIC: 12.5 µg/mL (≈ 22.7 µM)
S. aureus 27660
  MIC: 0.39 µg/mL (≈ 0.709 µM)

## NCCN(CCN)c1cccc(-c2ccc3[nH]c4ccc(-c5cccc(N(CCN)CCN)c5)cc4c3c2)c1 [Compound 156]
C. albicans GDH2346
  IC50: 1.94 µg/mL (≈ 3.72 µM)
E. coli 25922
  MIC: 1.56 µg/mL (≈ 2.99 µM)
E. faecalis 29212
  MIC: > 50 µg/mL
P. aeruginosa 10145
  MIC: 12.5 µg/mL (≈ 24 µM)
S. aureus 27660
  MIC: 1.56 µg/mL (≈ 2.99 µM)
[1]; [2]
  pEC50: < 3.00
[1]; [3]
  pEC50: 3.31

## NCCN(CCN)Cc1cccc(-c2ccc3[nH]c4ccc(-c5cccc(CN(CCN)CCN)c5)cc4c3c2)c1 [Compound 158]
C. albicans GDH2346
  IC50: 17.5 µg/mL (≈ 31.8 µM)
E. coli 25922
  MIC: 1.56 µg/mL (≈ 2.84 µM)
E. faecalis 29212
  MIC: > 50 µg/mL
P. aeruginosa 10145
  MIC: 25 µg/mL (≈ 45.5 µM)
S. aureus 27660
  MIC: 1.56 µg/mL (≈ 2.84 µM)
[1]; [2]
  pEC50: 3.21
[1]; [3]
  pEC50: 3.75

## N=C(N)NCCCn1c2cc(-c3ccc(CCNC(=N)N)c(CCNC(=N)N)c3)ccc2c2ccc(-c3ccc(CCNC(=N)N)c(CCNC(=N)N)c3)cc21 [Compound 160]
C. albicans GDH2346
  IC50: 1.48 µg/mL (≈ 1.95 µM)
E. coli 25922
  MIC: 1.56 µg/mL (≈ 2.06 µM)
E. faecalis 29212
  MIC: 3.13 µg/mL (≈ 4.12 µM)
P. aeruginosa 10145
  MIC: 6.25 µg/mL (≈ 8.23 µM)
S. aureus 27660
  MIC: 1.95 µg/mL (≈ 2.57 µM)
[1]; [2]
  pEC50: 4.55
[1]; [3]
  pEC50: 4.55

## NCCCn1c2cc(-c3cc(CCN)cc(CCN)c3)ccc2c2ccc(-c3cc(CCN)cc(CCN)c3)cc21 [Compound 161]
C. albicans GDH2346
  IC50: 11.8 µg/mL (≈ 21.5 µM)
E. coli 25922
  MIC: 1.56 µg/mL (≈ 2.84 µM)
E. faecalis 29212
  MIC: > 50 µg/mL
P. aeruginosa 10145
  MIC: 50 µg/mL (≈ 91.1 µM)
S. aureus 27660
  MIC: 6.25 µg/mL (≈ 11.4 µM)
[1]; [2]
  pEC50: 3.33
[1]; [3]
  pEC50: 3.45

## N=C(N)NCCCn1c2cc(-c3cc(CCNC(=N)N)cc(CCNC(=N)N)c3)ccc2c2ccc(-c3cc(CCNC(=N)N)cc(CCNC(=N)N)c3)cc21 [Compound 162]
C. albicans GDH2346
  IC50: 3.12 µg/mL (≈ 4.11 µM)
E. coli 25922
  MIC: 1.56 µg/mL (≈ 2.06 µM)
E. faecalis 29212
  MIC: 12.5 µg/mL (≈ 16.5 µM)
P. aeruginosa 10145
  MIC: 3.13 µg/mL (≈ 4.12 µM)
S. aureus 27660
  MIC: 0.39 µg/mL (≈ 0.514 µM)
[1]; [2]
  pEC50: 3.56
[1]; [3]
  pEC50: 4.31

## N=C(N)NCCCOc1cc(OCCCNC(=N)N)cc(-c2ccc3c(c2)c2cc(-c4cc(OCCCNC(=N)N)cc(OCCCNC(=N)N)c4)ccc2n3CCCNC(=N)N)c1 [Compound 163]
C. albicans GDH2346
  IC50: 1.79 µg/mL (≈ 2.04 µM)
E. coli 25922
  MIC: 3.13 µg/mL (≈ 3.56 µM)
E. faecalis 29212
  MIC: 3.13 µg/mL (≈ 3.56 µM)
P. aeruginosa 10145
  MIC: 50 µg/mL (≈ 56.9 µM)
S. aureus 27660
  MIC: 3.13 µg/mL (≈ 3.56 µM)
[1]; [2]
  pEC50: 3.95
[1]; [3]
  pEC50: 4.51
